Experiments:
WT 5-12 G-quadruplex = assay: CD kinetics, temperature-jump, WT; assay type: biochemical, human; settings: 2 equiv
Method: FIGS. 10A and 10B are a set of graphs showing (A) comparison of kinetics of initial folding rate of the WT 5-12 G-quadruplex with GTC365 and BRACO-19 by the temperature-jump method. (B) Enhanced initial folding rate of the 5-12 G-quadruplexes carrying different hTERT mutants by GTC365. The time-course CD signal of preheated oligo with compound or DMSO in a buffer containing 10 mM Tris-HCl (pH 7.5) and 5 mM KCl was monitored at 262 nm and 25° C.
For the kinetics analysis using the temperature-jump method, theoligo in a buffer containing 10 mM Tris-HCl (pH 7.5) was heated forl min at 95° C., and then a mixture of KCl and compound was addedand incubated for 1 min. Meanwhile, the CD cuvette was also heatedat 95° C. As soon as the sample in the CD cuvette at the hightemperature was placed in the CD chamber, a time-dependent CDsignal at 262 nm was recorded immediately. The initial folding ratewas determined by one-phase association curve fitting (eq 1) of thekinetics curve using GraphPad Prism 5: Y=Y0+(Plateau−Y0)*(1−e^−kx) (1) where Y is the CD signal at any time point x, Y0 is the Y value whentime (x) is zero, plateau is the Y value at infinite time, and k is the rateconstant.
To evaluate the comparative effects of GTC365 relative to BRACO-19 on the cooperative folding process, we carried out two different experiments. First, we compared the distribution of the different populations of small and large species using single-molecule experiments as described previously withGTC365 and BRACO-19 in the G138/139A mutant. Similar to the G124/125A mutant, the population of fully folded structures is small in the G138/139A mutant without addition of ligand. […] We then used a temperature-jump method84to compare the initial folding rate of the 5-12 WT G-quadruplex with GTC365 and BRACO-19 using a time-course CD signal curve. […] GTC365 alsoincreased the initial folding rates of G124A, G124/125A, andG146A in a dose-dependent manner by 0.049, 0.042, and 0.054s^−1 at 2 equiv, whereas the effect on the G138/139A mutant was insignificant (FIG. 10B). […]

[1] = system: hTERT core promoter E-box Mut construct; assay: Luciferase assay, pGL3-E-box mutant in MCF7 cells; assay type: cell-based, human; settings: 24 h
Method: Luciferase assay. From gDNA extracted from HeLa cells, the hTERT core promoter region, including −350 bp to +12 from the transcription start site, was amplified using a pair of primers, including KpnI and NheI restriction sites, for cloning of pGL3-hTERT with WT promoter sequence. Mutant constructs were generated by PCR-based site-directed mutagenesis. The sequence of each construct was confirmed by sequencing analysis. MCF7 cells in 24-well plate were transfected with 200 ng of pGL3 construct and 5 ng of pRL-TK by Fugene® HD Transfection Reagent and then incubated for 6 h. Media were replaced by fresh ones and the cells were treated with GTC365 or BRACO-19. The same volume of DMSO served as a control. […]
Since MYC is a key transcription factor for activation of the hTERT gene by binding to an E-box in the hTERT promoter region and is one of the oncogenes having a G-quadruplex structure in the promoter region, it was important to confirm that GTC365 affects the repression of hTERT promoter activity directly by binding to the G-quadruplex structure formed in the hTERT promoter and not by binding to the G-quadruplex in the MYC promoter. To distinguish between these possibilities, the luciferase activity of the pGL3-WT and pGL3-E-box mutant constructs were determined after treatment with GTC365. […]

hTERT mRNA = assay: qPCR of hTERT mRNA in MCF7 cells; assay type: cell-based, human
Method: qPCR. MCF7 and melanoma cells were treated with GTC365 and BRACO-19 for 72 h. Total RNA was extracted using an RNeasy mini-prep kit (Qiagen) and quantitated by measuring absorbance at 260 nm. cDNA was synthesized using a Takara PrimeScript™ RT Reagent Kit with gDNA eraser and then used as a template for qPCR. The qPCR was performed using Kapa Probe Fast qPCR Master Mix with ABI Taqman probes of hTERT (Hs00972656_m1), BCL2 (HS00608023_m1, FAM-labeled) or MYC (Hs00153408_m1), and GAPDH (Hs02758991_g1, VIC-labeled). The Ct values were measured by running Rotor-Gene Q, and the relative quantity of hTERT, BCL2, and MYC mRNA was obtained compared to GAPDH as an internal control.
BCL2 is a downstream molecule to hTERT such that BCL2 expression is activated by hTERT to repress apoptosis. To further define the effect of GTC365 on the transcription of hTERT, the relative mRNA levels of MYC and BCL2 were determined by quantitative PCR analysis in MCF7 cells after treatment with GTC365 for 72 h. […] A series of GTC260 analogs were synthesized and their effect on hTERT gene expression in MCF7A and U87 cells determined (FIG. 7). […] Therefore, GTC365 directly repressed the transcription of hTERT and then led to a downstream decrease of BCL2 expression.

CN(C)c1ccc(Nc2c3ccc(NC(=O)CCN4CCCC4)cc3nc3cc(NC(=O)CCN4CCCC4)ccc23)cc1 [BRACO-19, reference compound] was tested, and the “increase of initial folding rate” value (WT 5-12 G-quadruplex) was 0.017 s⁻¹, the luciferase activity [1] was “failed to reduce” and the “effect on hTERT transcription / mRNA level” value (hTERT mRNA) was “decreased”.
N=C(N)NCCCS(=O)(=O)Nc1ccc(Nc2c3ccccc3nc3cc([N+](=O)[O-])ccc23)cc1 [GTC365] was tested, and the “increase of initial folding rate” value (WT 5-12 G-quadruplex) was 0.042 s⁻¹, the initial folding rate (WT 5-12 G-quadruplex; without compound 0.051, 5 mM KCl, 25° C.) was 0.093 s⁻¹ and the luciferase activity [1] was “dose-dependent decrease”. The “effect on hTERT transcription / mRNA level” value (hTERT mRNA) was “significant effect” and the “decrease of hTERT mRNA level” value (hTERT mRNA; 72 h, 1 μM) was “up to 67%”.
